In ChEMBL document CHEMBL3217437, “The p53-MDM2/MDMX axis - A chemotype perspective” (Medchemcomm, 2011):
Blank lines part the entries; values can stand above or below the compound they belong to.

Columns and labels:
[1] = target: T1, Tumour suppressor p53/oncoprotein Mdm2 (Homo sapiens, UniProt P04637+Q00987); assay: Inhibition of p53 interaction to GST-tagged MDM2 (unknown origin); type: protein assay
Target sequence in this assay (P04637 whole entry): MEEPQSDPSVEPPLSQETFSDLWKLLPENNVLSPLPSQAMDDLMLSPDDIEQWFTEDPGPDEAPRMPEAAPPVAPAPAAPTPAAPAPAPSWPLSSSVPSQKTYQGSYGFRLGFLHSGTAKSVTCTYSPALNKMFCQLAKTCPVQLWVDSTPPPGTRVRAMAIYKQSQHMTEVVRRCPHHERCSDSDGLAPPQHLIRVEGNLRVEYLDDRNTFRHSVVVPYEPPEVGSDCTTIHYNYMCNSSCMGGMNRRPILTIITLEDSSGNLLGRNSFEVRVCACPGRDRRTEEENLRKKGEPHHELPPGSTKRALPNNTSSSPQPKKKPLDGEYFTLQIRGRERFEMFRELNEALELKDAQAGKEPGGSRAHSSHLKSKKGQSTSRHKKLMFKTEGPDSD
Target sequence in this assay (Q00987 whole entry): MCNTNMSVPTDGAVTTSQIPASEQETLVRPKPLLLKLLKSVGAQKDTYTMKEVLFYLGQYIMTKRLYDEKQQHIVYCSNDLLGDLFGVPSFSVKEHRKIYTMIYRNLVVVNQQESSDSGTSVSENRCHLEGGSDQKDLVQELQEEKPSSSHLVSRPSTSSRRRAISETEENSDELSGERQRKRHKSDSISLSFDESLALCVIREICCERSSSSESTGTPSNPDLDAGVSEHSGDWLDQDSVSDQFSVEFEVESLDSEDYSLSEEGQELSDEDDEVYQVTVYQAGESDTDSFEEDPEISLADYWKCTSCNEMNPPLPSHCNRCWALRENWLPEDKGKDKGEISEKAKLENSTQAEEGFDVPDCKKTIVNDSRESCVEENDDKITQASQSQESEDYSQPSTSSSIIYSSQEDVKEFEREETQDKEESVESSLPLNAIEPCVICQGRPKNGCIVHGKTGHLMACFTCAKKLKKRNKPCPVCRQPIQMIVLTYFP

[2] = target: T1, Tumour suppressor p53/oncoprotein Mdm2; assay: Inhibition of p53 interaction to MDM2 (unknown origin); type: protein assay
Target sequence in this assay (P04637 whole entry): as the sequence (P04637 whole entry) above
Target sequence in this assay (Q00987 whole entry): as the sequence (Q00987 whole entry) above

[3] = target: T1, Tumour suppressor p53/oncoprotein Mdm2; assay: Inhibition of p53 interaction to MDM2 (unknown origin) by fluorescence polarization assay; type: protein assay
Target sequence in this assay (P04637 whole entry): as the sequence (P04637 whole entry) above
Target sequence in this assay (Q00987 whole entry): as the sequence (Q00987 whole entry) above

[4] = target: Tumour suppressor protein p53/Mdm4 (Homo sapiens, UniProt O15151); assay: Inhibition of p53 interaction to MDMX (unknown origin) by fluorescence polarization assay; type: protein assay
Chain of Tumour suppressor protein p53/Mdm4 (P04637 whole entry): as the sequence (P04637 whole entry) above
Chain of Tumour suppressor protein p53/Mdm4 (O15151 whole entry): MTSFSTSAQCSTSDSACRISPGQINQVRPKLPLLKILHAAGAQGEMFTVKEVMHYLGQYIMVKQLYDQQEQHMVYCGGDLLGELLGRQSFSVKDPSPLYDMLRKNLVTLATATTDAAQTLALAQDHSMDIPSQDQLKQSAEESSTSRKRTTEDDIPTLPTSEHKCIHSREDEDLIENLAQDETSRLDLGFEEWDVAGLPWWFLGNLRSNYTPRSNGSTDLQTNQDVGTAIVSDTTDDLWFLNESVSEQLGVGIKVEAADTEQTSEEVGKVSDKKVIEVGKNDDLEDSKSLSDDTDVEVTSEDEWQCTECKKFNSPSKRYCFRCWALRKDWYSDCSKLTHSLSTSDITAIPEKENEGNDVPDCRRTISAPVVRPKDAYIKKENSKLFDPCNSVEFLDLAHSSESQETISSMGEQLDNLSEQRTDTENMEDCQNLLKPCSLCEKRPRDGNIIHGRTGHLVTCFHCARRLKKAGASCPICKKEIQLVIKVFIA

[5] = target: T1, Tumour suppressor p53/oncoprotein Mdm2; assay: Inhibition of p53 interaction to MDM2 (unknown origin) by HTRF assay in presence of 0.02% bovine serum albumin; type: protein assay
Target sequence in this assay (P04637 whole entry): as the sequence (P04637 whole entry) above
Target sequence in this assay (Q00987 whole entry): as the sequence (Q00987 whole entry) above

[6] = target: T1, Tumour suppressor p53/oncoprotein Mdm2; assay: Inhibition of p53 interaction to MDM2 (unknown origin) by HTS assay; type: protein assay
Target sequence in this assay (P04637 whole entry): as the sequence (P04637 whole entry) above
Target sequence in this assay (Q00987 whole entry): as the sequence (Q00987 whole entry) above

[7] = target: T1, Tumour suppressor p53/oncoprotein Mdm2; assay: Inhibition of His-tagged p53 interaction to GST-tagged MDM2 (unknown origin); type: protein assay
Target sequence in this assay (P04637 whole entry): as the sequence (P04637 whole entry) above
Target sequence in this assay (Q00987 whole entry): as the sequence (Q00987 whole entry) above

[8] = tested on: NCI-H460; assay: Antiproliferative activity against human NCI-H460 cells; type: functional, cell-based
[9] = Antiproliferative activity against human DLD1 cells; type: functional, cell-based; details: DLD-1
[10] = tested on: A2780; assay: Antiproliferative activity against human A2780 cells; type: functional, cell-based
[11] = target: T1, Tumour suppressor p53/oncoprotein Mdm2; assay: Inhibition of p53 interaction to MDM2 (unknown origin) at 1.4 uM by HTRF assay; type: protein assay
Target sequence in this assay (P04637 whole entry, looked up): as the sequence (P04637 whole entry) above
Target sequence in this assay (Q00987 whole entry, looked up): as the sequence (Q00987 whole entry) above

Structure (SMILES): COc1cc(C(=O)N(C)[C@@H](Cc2c[nH]c3ccccc23)C(=O)N2CCN(c3ccc([N+](=O)[O-])cc3)CC2)c([N+](=O)[O-])cc1OC
IC50 [2]: 30 nM

Structure (SMILES): CC(C)Cc1cc(CCC(=O)O)ccc1-c1ccc(-c2ccc(OCC(=O)O)c(Cc3ccccc3)c2)c(Cc2ccccc2)c1
Ki [3]: 970 nM

Structure (SMILES): CCOC(=O)[C@@]1(c2ccc(Cl)cc2)N=C(c2ccc(OC)cc2OC(C)C)N(C(=O)N2CCN(C(C)=O)CC2)[C@@H]1c1ccc(Cl)cc1
IC50 [2]: 70 nM

Structure (SMILES): CC(C)(C)c1ncc(C2=N[C@@](C)(c3ccc(Cl)cc3)[C@@](C)(c3ccc(Cl)cc3)N2C(=O)N2CCN(CCOCCO)CC2)cn1
IC50 [2]: 31 nM

Structure (SMILES): Cc1ccc(CN2C(=O)c3ccccc3C2(O[C@H]2C=C[C@@H](O)C2)c2ccc(Cl)cc2)cc1 (some centres not stated)
IC50 [2]: 1400 nM

Structure (SMILES): COC(=O)[C@]1(c2ccc(Cl)cc2)N=CN(CC2CC2)[C@H]1c1ccc(Cl)cc1
Ki [6]: 3000 nM

Structure (SMILES): CC(C)C1=C(C(=O)N2CCC[C@H]2C(=O)N(C)C)SC2=N[C@@](C)(c3ccc(Cl)nc3)[C@@H](c3ccc(Cl)cc3)N21
IC50 [7]: 14 nM
IC50 [8]: 1380 nM
IC50 [9]: 40.7 µM

Structure (SMILES): CC(C)C1=C(C(=O)N2C[C@H](F)C[C@H]2C(=O)N2CCNC3(CC3)C2)SC2=N[C@@](C)(c3ccc(Cl)nc3)[C@@H](c3ccc(Cl)c(F)c3)N21
IC50 [2]: 2.8 nM

Structure (SMILES): Fc1cc(Nc2ccncc2)cc(F)c1NCCc1c[nH]c2ccccc12
IC50 [10]: > 10000 nM

Structure (SMILES): Clc1ccc2c(-c3c(-c4ccc5c(c4)OCO5)ncn3CC3CC3)c[nH]c2c1
Ki [6]: 1000 nM

Structure (SMILES): COC(=O)c1cccc(S(=O)(=O)N2c3ccc(C(=O)N4CCN(C)CC4)c(=O)n3[C@@H](c3ccc(Cl)cc3)[C@H]2c2ccc(Cl)cc2)c1
IC50 [2]: 460 nM

Structure (SMILES): CCOC(=O)N1CCN(C(=O)[C@@]2(Sc3ccccc3)CC(=O)N(Cc3ccc(C#N)cc3)[C@@H]2c2c[nH]c3cc(Cl)ccc23)CC1
IC50 [2]: 1000 nM

Structure (SMILES): OC1CCc2c(Nc3ccc4c(c3)OCCN4CCc3c[nH]c4ccccc34)ccnc21 (configuration not stated)
IC50 [10]: 427 nM

The next lines start with the values.

IC50 [1]: 34 nM
Structure (SMILES): CC(=O)N1CCC(Oc2ccc(I)cc2[C@@H]2NC(=O)C[C@H](c3cccc(Cl)c3)[C@@]23C(=O)Nc2cc(Cl)ccc23)CC1

Ki [4]: 55 µM
Structure (SMILES): CC(C)(C)C[C@H]1N[C@@H](C(=O)NCCN2CCOCC2)[C@H](c2cccc(Cl)c2F)[C@@]12C(=O)Nc1cc(Cl)ccc12

IC50 [2]: 280 nM
Structure (SMILES): COc1cccc([C@]2(Cc3cccc(Cl)c3)C(=O)Nc3cc(Cl)ccc32)c1

IC50 [5]: 309 nM
Structure (SMILES): CC(C)(C)C[C@@H]1N[C@@H](C(=O)NCCCCO)[C@@H](c2cccc(Cl)c2)[C@@]1(C#N)c1ccc(Cl)cc1

IC50 [2]: 54 nM
Structure (SMILES): Cc1ccc(F)cc1[C@@H]1NC(=O)C[C@H](c2ccccc2OC(C)(C)C(=O)N2CCC(F)(F)CC2)[C@@]12C(=O)Nc1cc(Cl)ccc12

IC50 [5]: 165 nM
Structure (SMILES): CC(C)(C)C[C@@H]1N[C@@H](C(=O)NCC[C@H](O)CO)[C@@H](c2cc(F)cc(Cl)c2)[C@@]1(C#N)c1ccc(Cl)cc1F

IC50 [5]: 66 nM
Structure (SMILES): Cc1ccc(F)cc1[C@H]1NC(=O)C=C(c2cccc(Cl)c2)[C@]12C(=O)Nc1cc(Cl)ccc12

IC50 [2]: 460 nM
Structure (SMILES): COc1cccc(C2(Cc3cccc(Cl)c3)C(=O)Nc3cc(Cl)ccc32)c1 (configuration not stated)

IC50 [2]: 100 nM
Structure (SMILES): C=C(CC)[C@H]1N2CC(=O)N(CCCN(C)C)N=C2C[C@@H](c2cccc(Cl)c2)[C@]12C(=O)Nc1cc(Cl)ccc12

inhibition [11]: 94.4%
Structure (SMILES): O=C1C[C@H](c2cccc(Cl)c2)[C@@]2(C(=O)Nc3cc(Cl)ccc32)[C@H](c2cccc(Cl)c2)C1

IC50 [2]: 370 nM
Structure (SMILES): Cc1cccc([C@H]2N(CC(=O)O)C(=O)C[C@@H](c3cccc(Cl)c3)[C@]23C(=O)Nc2cc(Cl)ccc23)c1 (racemic)

IC50 [5]: 145 nM
Structure (SMILES): Cc1ccc(F)cc1[C@@H]1NC(=O)C[C@H](c2cc(Cl)cnc2CC(C)(C)C(=O)O)[C@@]12C(=O)Nc1cc(Cl)ccc12
